Counter-ions that a name gives are not always drawn. Like-named read-outs stand apart in the source and are kept apart here.
Biological target: T1, Zcchc11 enzyme (Homo sapiens, UniProt Q5TAX3)
T1 construct: made in house; host or cells: HEK293 cells (Zcchc11); E. coli Rosetta II (LIN28A)
T1 sequence (Q5TAX3 212-1420): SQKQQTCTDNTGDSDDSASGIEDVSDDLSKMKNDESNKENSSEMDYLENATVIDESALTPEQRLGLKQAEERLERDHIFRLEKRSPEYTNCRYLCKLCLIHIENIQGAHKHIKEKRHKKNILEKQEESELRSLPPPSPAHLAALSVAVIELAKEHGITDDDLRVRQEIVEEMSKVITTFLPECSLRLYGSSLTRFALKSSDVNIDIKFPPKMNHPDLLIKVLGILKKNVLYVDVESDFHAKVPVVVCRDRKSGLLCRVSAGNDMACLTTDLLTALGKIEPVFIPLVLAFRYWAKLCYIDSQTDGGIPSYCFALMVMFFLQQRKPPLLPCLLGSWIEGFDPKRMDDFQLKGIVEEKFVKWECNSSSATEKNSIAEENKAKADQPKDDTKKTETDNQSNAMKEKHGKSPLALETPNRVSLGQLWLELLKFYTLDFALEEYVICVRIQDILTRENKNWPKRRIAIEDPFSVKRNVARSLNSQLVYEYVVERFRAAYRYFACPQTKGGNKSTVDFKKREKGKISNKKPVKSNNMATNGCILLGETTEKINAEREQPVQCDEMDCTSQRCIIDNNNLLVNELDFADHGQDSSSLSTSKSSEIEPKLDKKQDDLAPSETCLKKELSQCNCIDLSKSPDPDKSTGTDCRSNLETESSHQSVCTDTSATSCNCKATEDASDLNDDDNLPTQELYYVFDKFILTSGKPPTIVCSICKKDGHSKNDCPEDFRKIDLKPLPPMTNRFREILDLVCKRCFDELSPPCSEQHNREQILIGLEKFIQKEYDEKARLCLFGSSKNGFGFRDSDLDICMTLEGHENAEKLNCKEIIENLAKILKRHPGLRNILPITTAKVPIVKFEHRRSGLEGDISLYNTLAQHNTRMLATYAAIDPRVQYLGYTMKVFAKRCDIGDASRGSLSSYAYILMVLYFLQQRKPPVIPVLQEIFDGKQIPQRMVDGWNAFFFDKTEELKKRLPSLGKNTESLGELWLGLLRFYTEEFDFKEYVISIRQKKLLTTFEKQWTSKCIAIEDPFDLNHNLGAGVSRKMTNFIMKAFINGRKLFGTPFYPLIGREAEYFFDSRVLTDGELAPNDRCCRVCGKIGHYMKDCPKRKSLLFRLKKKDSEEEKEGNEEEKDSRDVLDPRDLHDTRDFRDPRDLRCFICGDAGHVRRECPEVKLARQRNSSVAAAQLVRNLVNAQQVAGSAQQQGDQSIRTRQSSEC
Test: TUTase assay (Zcchc11 assay, Lin28a-dependent polyuridylation of pre-let-7)
Type: biochemical
Settings: read-out: Potency Lin28a-dep Z11 IC50
Procedure, shortened: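 Readout: time-dependent quench of 5′-fluorescein pre-let-7 (2 nM) as 3′-rhodamine A20 probe anneals to poly(U) tails. Enzyme 0.2 nM Zcchc11 (res. 212-1420), LIN28A 10 nM, UTP 5 uM; pH 7.3 HEPES, 150 mM KCl, 5 mM MgCl2, RT. 4-parameter IC50; 100% = DMSO, 0% = no UTP.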

[1] = Lin28a-dependent Zcchc11 (Z11) TUTase activity
[2] = LIN28A 10 nM, Zcchc11 0.2 nM, 5′-fluorescein pre-let-7 miRNA 2 nM, UTP 5 uM, room temperature, 30 minutes pre-incubation
[3] = Lin28a-dependent Zcchc11 (Z11) TUTase assay

SMILES: Cc1cccnc1OC[C@H]1CCCN1c1cc2c(cc1Cl)c(=O)c(C(=O)O)cn2-c1cnccn1 [Compound 212, 6-Chloro-7-[(2R)-2-{[(3-methylpyridin-2-yl)oxy]methyl}pyrrolidin-1-yl]-4-oxo-1-(pyrazin-2-yl)quinoline-3-carboxylic acid]
- IC50 [1]: ≤ 1000 nM

SMILES: CC1CCN(c2cc3c(cc2Cl)c(=O)c(C(=O)O)cn3-c2ccnc(N)c2)[C@H]1COc1nc(N(C)C)ccc1Cl (stereo partly drawn) [Example 65, 1-(2-aminopyridin-4-yl)-6-chloro-7-[(2R)-2-({[3-chloro-6-(dimethylamino)pyridin-2-yl]oxy}methyl)-3-methylpyrrolidin-1-yl]-4-oxoquinoline-3-carboxylic acid]
- IC50 [2]: ≤ 1000 nM

SMILES: COCCN1CC(C)(n2cc(C(=O)O)c(=O)c3cc(Cl)c(N4CCC[C@@H]4COc4ncccc4Cl)cc32)C1 [Example 37, 6-Chloro-7-[(2R)-2-{[(3-chloropyridin-2-yl)oxy]methyl}pyrrolidin-1-yl]-1-[1-(2-methoxyethyl)-3-methylazetidin-3-yl]-4-oxo-1,4-dihydroquinoline-3-carboxylic acid]
- IC50 [2]: 1000 to 10000 nM

SMILES: O=C(O)c1cn(-c2cc(F)ccc2Cl)c2cc(N3CCC[C@@H]3COc3ccccn3)c(F)cc2c1=O [Example 386, (R)-1-(2-chloro-5-fluorophenyl)-6-fluoro-4-oxo-7-(2-((pyridin-2-yloxy)methyl)pyrrolidin-1-yl)-1,4-dihydroquinoline-3-carboxylic acid]
- IC50 [3]: 1000 to 10000 nM

SMILES: Cn1cc(-n2cc(C(=O)O)c(=O)c3cc(C#N)c(N4CCC[C@H]4COc4ncccc4Cl)nc32)cn1 [Compound 281, (S)-7-(2-(((3-chloropyridin-2-yl)oxy)methyl)pyrrolidin-1-yl)-6-cyano-1-(1-methyl-1H-pyrazol-4-yl)-4-oxo-1,4-dihydro-1,8-naphthyridine-3-carboxylic acid]
- IC50 [1]: ≤ 1000 nM

SMILES: COc1ccnc(OC[C@@H]2CCCN2c2cc3c(cc2Cl)c(=O)c(C(=O)O)cn3-c2ccc(N3CC(N(C)C)C3)nc2)c1Cl [Example 668, (S)-6-chloro-7-(2-(((3-chloro-4-methoxypyridin-2-yl)oxy)methyl)pyrrolidin-1-yl)-1-(6-(3-(dimethylamino)azetidin-1-yl)pyridin-3-yl)-4-oxo-1,4-dihydroquinoline-3-carboxylic acid]
- IC50 [3]: ≤ 1000 nM

SMILES: O=C(O)c1cn(C2(c3ccccc3)CC2)c2cc(N3CCC[C@@H]3COc3ncccc3Cl)c(Cl)cc2c1=O [Example 588, (R)-6-chloro-7-(2-(((3-chloropyridin-2-yl)oxy)methyl)pyrrolidin-1-yl)-4-oxo-1-(1-phenylcyclo-propyl)-1,4-dihydroquinoline-3-carboxylic acid]
- IC50 [3]: 1000 to 10000 nM

SMILES: CNCCOc1ccc(-n2cc(C(=O)O)c(=O)c3cc(Cl)c(N4CCC[C@@H]4COc4ncccc4Cl)cc32)cn1 [Example 480, (R)-6-chloro-7-(2-(((3-chloropyridin-2-yl)oxy)methyl)pyrrolidin-1-yl)-1-(6-(2-(methyl-amino)ethoxy)pyridin-3-yl)-4-oxo-1,4-dihydroquinoline-3-carboxylic acid hydrochloride]
- IC50 [3]: ≤ 1000 nM

SMILES: O=C(O)c1cn(-c2cccnn2)c2cc(N3CCC[C@@H]3COc3ncccc3Cl)c(Cl)cc2c1=O [Example 498, (R)-6-chloro-7-(2-(((3-chloropyridin-2-yl)oxy)methyl)pyrrolidin-1-yl)-4-oxo-1-(pyridazin-3-yl)-1,4-dihydroquinoline-3-carboxylic acid]
- IC50 [3]: ≤ 1000 nM

SMILES: CN(C)C1CN(c2ccc(-n3cc(C(=O)O)c(=O)c4cc(Cl)c(N5C6CCC5(COc5ncccc5Cl)CC6)cc43)cn2)C1 [Compound 282, 6-chloro-7-(1-(((3-chloropyridin-2-yl)oxy)methyl)-7-azabicyclo [2.2.1]heptan-7-yl)-1-(6-(3-(dimethyl-amino)azetidin-1-yl)pyridin-3-yl)-4-oxo-1,4-dihydro-quinoline-3-carboxylic acid]
- IC50 [1]: ≤ 1000 nM

SMILES: Cc1nc2cc(-n3cc(C(=O)O)c(=O)c4cc(Cl)c(N5CCC[C@@H]5COc5ncccc5Cl)cc43)ncc2[nH]1 [Example 616, (R)-6-chloro-7-(2-(((3-chloropyridin-2-yl)oxy)methyl)pyrrolidin-1-yl)-1-(2-methyl-3H-imidazo[4,5-c]pyridin-6-yl)-4-oxo-1,4-dihydroquinoline-3-carboxylic acid]
- IC50 [3]: ≤ 1000 nM

SMILES: O=C(O)c1cn(-c2ccc(O)cc2F)c2cc(N3CCC[C@@H]3COc3ccccn3)c(F)cc2c1=O [Compound 83, (R)-6-fluoro-1-(2-fluoro-4-hydroxy-phenyl)-4-oxo-7-(2-((pyridin-2-yloxy)methyl)pyrrolidin-1-yl)-1,4-dihydro-quinoline-3-carboxylic acid]
- IC50 [1]: ≤ 1000 nM

SMILES: COc1ccc(Cl)c(OC[C@H]2CC(N3CCCC3=O)CN2c2cc3c(cc2Cl)c(=O)c(C(=O)O)cn3-c2ccc(N3CC(N(C)C)C3)nc2)n1 (stereo partly drawn) [Example 642, 6-chloro-7-((5′R)-5′-(((3-chloro-6-methoxypyridin-2-yl)oxy)methyl)-2-oxo-[1,3′-bipyrrolidin]-1-yl)-1-(6-(3-(dimethylamino)azetidin-1-yl)pyridin-3-yl)-4-oxo-1,4-dihydroquinoline-3-carboxylic acid]
- IC50 [3]: ≤ 1000 nM

SMILES: Cc1ccc(Cl)c(OC[C@H]2CCCN2c2cc3c(cc2Cl)c(=O)c(C(=O)O)cn3-c2ccc(N3CC(N(C)C)C3)nc2)n1 (racemic) [Compound 187, rac-(R)-6-chloro-7-(2-(((3-chloro-6-methylpyridin-2-yl)oxy)methyl)pyrrolidin-1-yl)-1-(6-(3-(dimethyl-amino)azetidin-1-yl)pyridin-3-yl)-4-oxo-1,4-dihydro-quinoline-3-carboxylic acid]
- IC50 [1]: ≤ 1000 nM

SMILES: COc1ccc(Cl)c(OCC2N(c3cc4c(cc3Cl)c(=O)c(C(=O)O)cn4-c3cc(N)cnn3)CCC2(C)C)n1 (centres unmarked) [Example 67, 1-(5-Aminopyridazin-3-yl)-6-chloro-7-(2-(((3-chloro-6-methoxypyridin-2-yl)oxy)methyl)-3,3-dimethylpyrrolidin-1-yl)-4-oxo-1,4-dihydroquinoline-3-carboxylic acid]
- IC50 [2]: ≤ 1000 nM

SMILES: COCCN(C)C1CN(c2ccc(-n3cc(C(=O)O)c(=O)c4cc(F)c(N5CCC[C@@H]5COc5ncccc5Cl)cc43)cn2)C1 [Example 614, (R)-7-(2-(((3-chloropyridin-2-yl)oxy)methyl)pyrrolidin-1-yl)-6-fluoro-1-(6-(3-((2-methoxyethyl) (methyl)amino)azetidin-1-yl)pyridin-3-yl)-4-oxo-1,4-dihydroquinoline-3-carboxylic acid]
- IC50 [3]: ≤ 1000 nM

SMILES: O=C(O)c1cn(-c2cnccn2)c2cc(N3CCC[C@@H]3COc3ncccc3F)c(Cl)cc2c1=O [Compound 213, 6-Chloro-7-[(2R)-2-{[(3-fluoropyridin-2-yl)oxy]methyl}pyrrolidin-1-yl]-4-oxo-1-(pyrazin-2-yl)quinoline-3-carboxylic acid]
- IC50 [1]: ≤ 1000 nM

SMILES: O=C(O)c1cn(-c2ccc3c(c2)CCOC3)c2cc(N3CCC[C@@H]3COc3ncccc3Cl)c(Cl)cc2c1=O [Example 445, (R)-6-chloro-7-(2-(((3-chloropyridin-2-yl)oxy)methyl)pyrrolidin-1-yl)-1-(isochroman-6-yl)-4-oxo-1,4-dihydroquinoline-3-224 carboxylic acid]
- IC50 [3]: ≤ 1000 nM

SMILES: O=C(O)c1cn(C2CCc3nccn3C2)c2cc(N3CCC[C@@H]3COc3ncccc3Cl)c(Cl)cc2c1=O (stereo partly drawn) [Example 469, 6-chloro-7-((R)-2-(((3-chloropyridin-2-yl)oxy)methyl)pyrrolidin-1-yl)-4-oxo-1-(5,6,7,8-tetrahydroimidazo [1,2-a]pyridin-6-yl)-1,4-dihydroquinoline-3-carboxylic acid]
- IC50 [3]: ≤ 1000 nM

SMILES: O=C(O)c1cn(-c2ccc3c(c2F)CCN3)c2cc(N3CCC[C@@H]3COc3ccccn3)c(F)cc2c1=O [Compound 216, 6-Fluoro-1-(4-fluoro-2,3-dihydro-1H-indol-5-yl)-4-oxo-7-[(2R)-2-[(pyridin-2-yloxy)methyl]pyrrolidin-1-yl]quinoline-3-carboxylic acid]
- IC50 [1]: ≤ 1000 nM

From patent publication US12662491B2 (Redona Therapeutics, Inc., priority 2020, dated 2026)
